From US11339177B2, “Heteroaryl compounds as inhibitors of necrosis, composition and method using the same” (ACCRO BIOSCIENCE INC., priority 2017, dated 2022)
Structures can show the parent of a compound that is named as a salt.

Experiments:
Assay type in all cases: cell-based
HT29 cells [1] = test: Necroptosis assay in HT29 cells (TNF-α, Smac mimetic, z-VAD; cell viability); conditions: Homo sapiens, HT-29; TNF-α (40 ng/mL), Smacmimetic (100 nM), z-VAD (20 μM), 48 hours
Experimental: Human colon cancer HT29 cells were used in a necroptosis assay. For this assay, HT29 cells were added to 96-well plates and then were pre-treated with 10 μM of the test compound for one hour. Then the cells were treated with TNF-α (40 ng/mL), Smacmimetic (100 nM) and z-VAD (20 μM) for 48 hours, and the viability of cells was quantified. DMSO pretreatment group was used as negative controls, Nec-1 pretreatment group was used as positive controls.
In Table 2, (1) “ND” indicates “not detected;” (2) Explanation for inhibition %: Taking Compound B14 as an example, its inhibition % was 30% (50 nM). It means that the when Compound B14 at a concentration of 50 nM was used in the HT29 Cell Assay, the necrosis of cells were inhibited at 30%.

L929 cells = test: Necroptosis assay in L929 cells (TNF-α, z-VAD; cell viability by ATP levels); conditions: Mus musculus, TNF-α (40 ng/mL), z-VAD (20 μM), 48 hours
Experimental: […] Then the cells were treated with TNF-α (40 ng/mL) and z-VAD (20 μM) for 48 hours, and the viability of cells was quantified by detecting adenosine triphosphate (ATP) levels. DMSO pretreatment group was used as negative controls, Nec-1 pretreatment group was used as positive controls.

HT29 cells [2] = test: Necroptosis assay in HT29 cells (TNF-α, Smac mimetic, z-VAD; cell viability); conditions: Homo sapiens, HT-29; inhibition of necrosis in HT29 cells, compound at 50 nM

`O=C(Nc1nc2ccc(-c3cnc4c(c3)N(C(=O)OC3CCCCC3)CCO4)cc2s1)C1CC1` [Compound B3] showed an IC50 (HT29 cells [1]) of 0.5 nM and an IC50 (L929 cells) of 0.59 nM.

With `CC(=O)Nc1nc2ccc(-c3cnc4c(c3)N(C(=O)OC3CCCCC3)CCO4)cn2n1` [Compound B7] the IC50 (HT29 cells [1]) was 46 nM and the IC50 (L929 cells) was 20 nM.

Compound `CC(=O)Nc1cn2cc(-c3cnc4c(c3)N(C(=O)OC3CCCCC3)CCO4)ccc2n1` [Compound B8] has an IC50 (HT29 cells [1]) of 1 nM and an IC50 (L929 cells) of 1.5 nM.

For `O=C(Nc1cn2cc(-c3cnc4c(c3)N(C(=O)OC3CCCCC3)CCO4)ccc2n1)C1CC1` [Compound B9], the IC50 (HT29 cells [1]) was 0.5 nM and the IC50 (L929 cells) was 0.2 nM.

Work on `Nc1cn2nc(-c3cnc4c(c3)N(C(=O)OC3CCCCC3)CCO4)ccc2n1` [Compound B11] yielded an IC50 (HT29 cells [1]) of 500 nM and an IC50 (L929 cells) of 8.9 nM.

`O=C(Nc1cn2nc(-c3cnc4c(c3)N(C(=O)OC3CCCCC3)CCO4)ccc2n1)C1CC1` [Compound B13] was tested, and the IC50 (HT29 cells [1]) was 1.3 nM and the IC50 (L929 cells) was 0.7 nM.

With `Nc1nc2ccc(-c3cnc4c(c3)N(C(=O)OC3CCOCC3)CCO4)cc2s1` [Compound B14, tetrahydro-2H-pyran-4-yl7-(2-aminobenzo[d]thiazol-6-yl)-2,3-dihydro-1H-pyrido[2,3-b][1,4]oxazine-1-carboxylate hydrochloride] the inhibition at 0.05 µM (HT29 cells [2]) was 30% and the IC50 (L929 cells) was 12.6 nM.

Work on `CC(=O)Nc1nc2ccc(-c3cnc4c(c3)N(C(=O)OC3CCOCC3)CCO4)cc2s1` [Compound B15] yielded an IC50 (HT29 cells [1]) of 20 nM and an IC50 (L929 cells) of 8.8 nM.

For `O=C(Nc1nc2ccc(-c3cnc4c(c3)N(C(=O)OC3CCOCC3)CCO4)cc2s1)C1CC1` [Compound B16], the IC50 (HT29 cells [1]) was 4 nM and the IC50 (L929 cells) was 1.5 nM.

Compound `CC(=O)Nc1cn2cc(-c3cnc4c(c3)N(C(=O)OC3CCOCC3)CCO4)ccc2n1` [Compound B18] has an inhibition at 0.05 µM (HT29 cells [2]) of 10%.

With `O=C(Nc1cn2cc(-c3cnc4c(c3)N(C(=O)OC3CCOCC3)CCO4)ccc2n1)C1CC1` [Compound B19] the IC50 (HT29 cells [1]) was 20 nM and the IC50 (L929 cells) was 10 nM.

`CC(=O)Nc1cn2nc(-c3cnc4c(c3)N(C(=O)OC3CCOCC3)CCO4)ccc2n1` [Compound B20] was tested, and the inhibition at 0.05 µM (HT29 cells [2]) was 20%.

`O=C(Nc1cn2nc(-c3cnc4c(c3)N(C(=O)OC3CCOCC3)CCO4)ccc2n1)C1CC1` [Compound B21] was tested, and the IC50 (HT29 cells [1]) was 50 nM and the IC50 (L929 cells) was 31 nM.

`CC(C)(C)OC(=O)Nc1cn2nc(-c3cnc4c(c3)N(C(=O)OC3CCOCC3)CCO4)ccc2n1` [Compound B22] gave an inhibition at 0.05 µM (HT29 cells [2]) of 25%, an IC50 (HT29 cells [1]) of 114 nM and an IC50 (L929 cells) of 80 nM.

`Nc1cn2nc(-c3cnc4c(c3)N(C(=O)OC3CCOCC3)CCO4)ccc2n1` [Compound B23] showed an inhibition at 0.05 µM (HT29 cells [2]) of 10%, an IC50 (HT29 cells [1]) of 147 nM and an IC50 (L929 cells) of 11.5 nM.

Compound `CC(=O)Nc1nc2ccc(-c3cnc4c(c3)N(C(=O)OC(C)C3CC3)CCO4)cc2s1` (centres unmarked) [Compound B24] has an IC50 (HT29 cells [1]) of 18 nM and an IC50 (L929 cells) of 5 nM.

For `CC(=O)Nc1nc2ccc(-c3cnc4c(c3)N(C(=O)OC3CCCOC3)CCO4)cc2s1` (centres unmarked) [Compound B25], the IC50 (HT29 cells [1]) was 17 nM and the IC50 (L929 cells) was 10 nM.

For `O=C(Nc1nc2ccc(-c3cnc4c(c3)N(C(=O)OC3CCOCC3)CCO4)nc2s1)C1CC1` [Compound B35], the IC50 (HT29 cells [1]) was 36 nM and the IC50 (L929 cells) was 1 nM.

With `CC(=O)Nc1nc2ccc(-c3cnc4c(c3)N(C(=O)OC3CCCCC3)C[C@@H](C)O4)cc2s1` [Compound B37, Cyclohexyl-(R)-7-(2-acetamidobenzo[d]thiazol-6-yl)-3-methyl-2,3-dihydro-1H-pyrido[2,3-b][1,4]oxazine-1-carboxylate] the IC50 (HT29 cells [1]) was 32 nM and the IC50 (L929 cells) was 30 nM.

With `CC(=O)Nc1nc2ccc(-c3cnc4c(c3)N(C(=O)OC3CCCCC3)C[C@H](C)O4)cc2s1` [Compound B38] the IC50 (HT29 cells [1]) was 3500 nM and the IC50 (L929 cells) was 15 nM.

For `CC(=O)Nc1cn2nc(-c3cnc4c(c3)N(C(=O)OC3CCOCC3)CC4)ccc2n1` [Compound B57], the IC50 (HT29 cells [1]) was 600 nM and the IC50 (L929 cells) was 90 nM.

Work on `CNC(=O)Nc1nc2ccc(-c3cnc4c(c3)N(C(=O)OC3CCOCC3)CC4)cc2s1` [Compound B60, Tetrahydro-2H-pyran-4-yl6-(2-(3-methylureido)benzo[d]thiazol-6-yl)-2,3-dihydro-1H-pyrrolo[3,2-b]pyridine-1-carboxylate] yielded an IC50 (HT29 cells [1]) of 1.3 nM and an IC50 (L929 cells) of 2.8 nM.

In the case of `O=C(Nc1nc2ccc(-c3cnc4c(c3)N(C(=O)CC3CCOCC3)CC4)nc2s1)C1CC1` [Compound B63], the IC50 (HT29 cells [1]) is reported as 25 nM and the IC50 (L929 cells) is reported as 8.5 nM.

`CC(C)OC(=O)N1CCc2ncc(-c3ccc4nc(NC(=O)C5CC5)sc4c3)cc21` [Compound B65] gave an IC50 (HT29 cells [1]) of 3.2 nM and an IC50 (L929 cells) of 4.5 nM.

`O=C(Nc1nc2ccc(-c3cnc4c(c3)N(C(=O)OCC3CC3)CC4)cc2s1)C1CC1` [Compound B66] was tested, and the IC50 (HT29 cells [1]) was 0.39 nM and the IC50 (L929 cells) was 0.73 nM.

`CN1CCC(OC(=O)N2CCc3ncc(-c4ccc5nc(NC(=O)C6CC6)sc5c4)cc32)CC1` [Compound B68, 1-methylpiperidin-4-yl-6-(2-(cyclopropanecarboxamido)benzo[d]thiazol-6-yl)-2,3-dihydro-1H-pyrrolo[3,2-b]pyridine-1-carboxylate] was tested, and the IC50 (HT29 cells [1]) was 30 nM and the IC50 (L929 cells) was 28.3 nM.

Compound `O=C(Nc1nc2ccc(-c3cnc4c(c3)N(C(=O)OC3CCS(=O)(=O)CC3)CC4)cc2s1)C1CC1` [Compound B69, 1,1-dioxidotetrahydro-2H-thiopyran-4-yl6-(2-(cyclopropanecarboxamido)benzo[d]thiazol-6-yl)-2,3-dihydro-1H-pyrrolo[3,2-b]pyridine-1-carboxylate] has an IC50 (HT29 cells [1]) of 4.8 nM and an IC50 (L929 cells) of 15 nM.

`O=C(Nc1nc2ccc(-c3cnc4c(c3)N(C(=O)OC3CCC(F)(F)CC3)CC4)cc2s1)C1CC1` [Compound B70] showed an IC50 (HT29 cells [1]) of 1.2 nM and an IC50 (L929 cells) of 1.3 nM.
